Assay results from patent US9469650B2, “Melampomagnolide B derivatives” (BOARD OF TRUSTEES OF THE UNIVERSITY OF ARKANSAS, priority 2013, dated 2016).

Experiments:
A549/ATCC = assay: panel of 60 human tumor cell lines, growth inhibition (Non-Small Cell Lung Cancer); conditions: A549/ATCC
NCI-H322M = assay: as above
UACC-257 = assay: panel of 60 human tumor cell lines, growth inhibition (Melanoma); conditions: UACC-257
BT-549 = assay: panel of 60 human tumor cell lines, growth inhibition (Breast Cancer); conditions: BT-549
HS 578T = assay: as above; conditions: HS 578T
SF-295 = assay: panel of 60 human tumor cell lines, growth inhibition (CNS Cancer); conditions: SF-295
TK-10 = assay: panel of 60 human tumor cell lines, growth inhibition (Renal Cancer); conditions: TK-10
HCT-116 = assay: panel of 60 human tumor cell lines, growth inhibition (Colon Cancer); conditions: HCT-116
SNB-75 = assay: panel of 60 human tumor cell lines, growth inhibition (CNS Cancer); conditions: SNB-75
K-562 = assay: panel of 60 human tumor cell lines, growth inhibition (Leukemia); conditions: K-562
NCI-H522 = assay: panel of 60 human tumor cell lines, growth inhibition (Non-Small Cell Lung Cancer); conditions: NCI-H522
HCT-15 = assay: panel of 60 human tumor cell lines, growth inhibition (Colon Cancer); conditions: HCT-15
OVCAR-5 = assay: panel of 60 human tumor cell lines, growth inhibition (Ovarian Cancer); conditions: OVCAR-5
T-47D = assay: panel of 60 human tumor cell lines, growth inhibition (Breast Cancer); conditions: T-47D
SF-268 = assay: panel of 60 human tumor cell lines, growth inhibition (CNS Cancer); conditions: SF-268
HT29 = assay: panel of 60 human tumor cell lines, growth inhibition (Colon Cancer); conditions: HT29
SW-620 = assay: as above; conditions: SW-620
OVCAR-3 = assay: panel of 60 human tumor cell lines, growth inhibition (Ovarian Cancer); conditions: OVCAR-3

C=C1C(=O)O[C@H]2[C@H]1CC/C(COC(=O)NC)=C\CC[C@@]1(C)O[C@@H]21 [JVM 2-57]
Percent Growth (A549/ATCC; Log10 Concentration −4.0): −88%
Percent Growth (A549/ATCC; Log10 Concentration −5.0): 71%
Percent Growth (A549/ATCC; Log10 Concentration −6.0): 95%
Percent Growth (A549/ATCC; Log10 Concentration −7.0): 99%
Percent Growth (A549/ATCC; Log10 Concentration −8.0): 100%
GI50 (A549/ATCC; NCI five dose): 13.5 µM
TGI (A549/ATCC; NCI five dose): 2.80E−5
Percent Growth (NCI-H322M; Log10 Concentration −4.0): −17%
Percent Growth (NCI-H322M; Log10 Concentration −5.0): 78%
Percent Growth (NCI-H322M; Log10 Concentration −6.0): 97%
Percent Growth (NCI-H322M; Log10 Concentration −7.0): 94%
Percent Growth (NCI-H322M; Log10 Concentration −8.0): 98%
GI50 (NCI-H322M; NCI five dose): 19.7 µM
TGI (NCI-H322M; NCI five dose): 6.62E−5
Percent Growth (UACC-257; Log10 Concentration −4.0): −91%
Percent Growth (UACC-257; Log10 Concentration −5.0): 24%
Percent Growth (UACC-257; Log10 Concentration −6.0): 73%
Percent Growth (UACC-257; Log10 Concentration −7.0): 94%
Percent Growth (UACC-257; Log10 Concentration −8.0): 94%
GI50 (UACC-257; NCI five dose): 2.96 µM
TGI (UACC-257; NCI five dose): 1.62E−5
Percent Growth (BT-549; Log10 Concentration −4.0): −96%
Percent Growth (BT-549; Log10 Concentration −6.0): 74%
Percent Growth (BT-549; Log10 Concentration −7.0): 86%
Percent Growth (BT-549; Log10 Concentration −8.0): 105%
GI50 (BT-549; NCI five dose): 2.13 µM
TGI (BT-549; NCI five dose): 9.96E−6
Percent Growth (HS 578T; Log10 Concentration −4.0): 7%
Percent Growth (HS 578T; Log10 Concentration −5.0): 65%
Percent Growth (HS 578T; Log10 Concentration −6.0): 87%
Percent Growth (HS 578T; Log10 Concentration −7.0): 92%
Percent Growth (HS 578T; Log10 Concentration −8.0): 91%
GI50 (HS 578T; NCI five dose): 18.4 µM
TGI (HS 578T; NCI five dose): >1.00E−4
Percent Growth (SF-295; Log10 Concentration −4.0): −30%
Percent Growth (SF-295; Log10 Concentration −5.0): 76%
Percent Growth (SF-295; Log10 Concentration −6.0): 93%
Percent Growth (SF-295; Log10 Concentration −7.0): 90%
Percent Growth (SF-295; Log10 Concentration −8.0): 97%
GI50 (SF-295; NCI five dose): 17.5 µM
TGI (SF-295; NCI five dose): 5.21E−5
Percent Growth (TK-10; Log10 Concentration −4.0): −95%
Percent Growth (TK-10; Log10 Concentration −5.0): −5%
Percent Growth (TK-10; Log10 Concentration −6.0): 96%
Percent Growth (TK-10; Log10 Concentration −7.0): 98%
Percent Growth (TK-10; Log10 Concentration −8.0): 94%
GI50 (TK-10; NCI five dose): 2.86 µM
TGI (TK-10; NCI five dose): 8.97E−6
Percent Growth (HCT-116; Log10 Concentration −4.0): −98%
Percent Growth (HCT-116; Log10 Concentration −5.0): 3%
Percent Growth (HCT-116; Log10 Concentration −6.0): 88%
Percent Growth (HCT-116; Log10 Concentration −7.0): 93%
Percent Growth (HCT-116; Log10 Concentration −8.0): 102%
GI50 (HCT-116; NCI five dose): 2.8 µM
TGI (HCT-116; NCI five dose): 1.07E−5
Percent Growth (SNB-75; Log10 Concentration −4.0): −41%
Percent Growth (SNB-75; Log10 Concentration −5.0): 55%
Percent Growth (SNB-75; Log10 Concentration −6.0): 78%
Percent Growth (SNB-75; Log10 Concentration −7.0): 76%
Percent Growth (SNB-75; Log10 Concentration −8.0): 83%
GI50 (SNB-75; NCI five dose): 11.2 µM
TGI (SNB-75; NCI five dose): 3.72E−5
Percent Growth (K-562; Log10 Concentration −4.0): −16%
Percent Growth (K-562; Log10 Concentration −5.0): 16%
Percent Growth (K-562; Log10 Concentration −6.0): 92%
Percent Growth (K-562; Log10 Concentration −7.0): 92%
Percent Growth (K-562; Log10 Concentration −8.0): 99%
GI50 (K-562; NCI five dose): 3.58 µM
TGI (K-562; NCI five dose): 3.20E−5
Percent Growth (NCI-H522; Log10 Concentration −4.0): −74%
Percent Growth (NCI-H522; Log10 Concentration −5.0): −73%
Percent Growth (NCI-H522; Log10 Concentration −6.0): 68%
Percent Growth (NCI-H522; Log10 Concentration −7.0): 87%
Percent Growth (NCI-H522; Log10 Concentration −8.0): 89%
GI50 (NCI-H522; NCI five dose): 1.33 µM
TGI (NCI-H522; NCI five dose): 3.02E−6
Percent Growth (HCT-15; Log10 Concentration −4.0): −83%
Percent Growth (HCT-15; Log10 Concentration −5.0): 4%
Percent Growth (HCT-15; Log10 Concentration −6.0): 82%
Percent Growth (HCT-15; Log10 Concentration −7.0): 97%
Percent Growth (HCT-15; Log10 Concentration −8.0): 98%
GI50 (HCT-15; NCI five dose): 2.58 µM
TGI (HCT-15; NCI five dose): 1.12E−5
Percent Growth (OVCAR-5; Log10 Concentration −4.0): −90%
Percent Growth (OVCAR-5; Log10 Concentration −5.0): 24%
Percent Growth (OVCAR-5; Log10 Concentration −6.0): 86%
Percent Growth (OVCAR-5; Log10 Concentration −7.0): 84%
Percent Growth (OVCAR-5; Log10 Concentration −8.0): 93%
GI50 (OVCAR-5; NCI five dose): 3.82 µM
TGI (OVCAR-5; NCI five dose): 1.62E−5
Percent Growth (T-47D; Log10 Concentration −4.0): −80%
Percent Growth (T-47D; Log10 Concentration −5.0): −4%
Percent Growth (T-47D; Log10 Concentration −6.0): 81%
Percent Growth (T-47D; Log10 Concentration −7.0): 86%
Percent Growth (T-47D; Log10 Concentration −8.0): 94%
GI50 (T-47D; NCI five dose): 2.32 µM
TGI (T-47D; NCI five dose): 9.04E−6
Percent Growth (SF-268; Log10 Concentration −4.0): −73%
Percent Growth (SF-268; Log10 Concentration −5.0): 66%
Percent Growth (SF-268; Log10 Concentration −6.0): 92%
Percent Growth (SF-268; Log10 Concentration −7.0): 90%
Percent Growth (SF-268; Log10 Concentration −8.0): 92%
GI50 (SF-268; NCI five dose): 13 µM
TGI (SF-268; NCI five dose): 2.98E−5
Percent Growth (HT29; Log10 Concentration −4.0): −73%
Percent Growth (HT29; Log10 Concentration −5.0): 21%
Percent Growth (HT29; Log10 Concentration −6.0): 104%
Percent Growth (HT29; Log10 Concentration −7.0): 96%
Percent Growth (HT29; Log10 Concentration −8.0): 101%
GI50 (HT29; NCI five dose): 4.5 µM
TGI (HT29; NCI five dose): 1.68E−5
Percent Growth (SW-620; Log10 Concentration −4.0): −80%
Percent Growth (SW-620; Log10 Concentration −5.0): 6%
Percent Growth (SW-620; Log10 Concentration −6.0): 65%
Percent Growth (SW-620; Log10 Concentration −7.0): 99%
Percent Growth (SW-620; Log10 Concentration −8.0): 98%
GI50 (SW-620; NCI five dose): 1.8 µM
TGI (SW-620; NCI five dose): 1.16E−5
Percent Growth (OVCAR-3; Log10 Concentration −4.0): −100%
Percent Growth (OVCAR-3; Log10 Concentration −5.0): 7%
Percent Growth (OVCAR-3; Log10 Concentration −6.0): 86%
Percent Growth (OVCAR-3; Log10 Concentration −7.0): 100%
Percent Growth (OVCAR-3; Log10 Concentration −8.0): 99%
GI50 (OVCAR-3; NCI five dose): 2.87 µM
TGI (OVCAR-3; NCI five dose): 1.17E−5
